Source: ChEMBL document CHEMBL3351223, “Single Diastereomer of a Macrolactam Core Binds Specifically to Myeloid Cell Leukemia 1 (MCL1)” (ACS Med Chem Lett, 2014)
Calls of active or inactive are those of the source. The rule behind the calls is not given here.

Legend:
[1] = target: T1, Induced myeloid leukemia cell differentiation protein Mcl-1 (Homo sapiens, UniProt Q07820)
Description: Binding affinity to human MCL1 (173 to 329 aa) using TAMRA-labeled Noxa peptide preincubated for 30 mins by fluorescent polarization assay

[2] = target: T1, Induced myeloid leukemia cell differentiation protein Mcl-1; remark: listed apart in the source
Description: Binding affinity to human MCL1 (173 to 329 aa) at 250 uM by differential scanning calorimetry assay

[3] = target: T1, Induced myeloid leukemia cell differentiation protein Mcl-1; remark: listed apart in the source
[4] = target: T1, Induced myeloid leukemia cell differentiation protein Mcl-1; remark: listed apart in the source
[5] = target: T1, Induced myeloid leukemia cell differentiation protein Mcl-1; settings: 800 uM
[6] = target: T1, Induced myeloid leukemia cell differentiation protein Mcl-1; settings: 25 uM
[7] = target: T1, Induced myeloid leukemia cell differentiation protein Mcl-1; settings: 100 uM

T1 sequence (Q07820 whole entry): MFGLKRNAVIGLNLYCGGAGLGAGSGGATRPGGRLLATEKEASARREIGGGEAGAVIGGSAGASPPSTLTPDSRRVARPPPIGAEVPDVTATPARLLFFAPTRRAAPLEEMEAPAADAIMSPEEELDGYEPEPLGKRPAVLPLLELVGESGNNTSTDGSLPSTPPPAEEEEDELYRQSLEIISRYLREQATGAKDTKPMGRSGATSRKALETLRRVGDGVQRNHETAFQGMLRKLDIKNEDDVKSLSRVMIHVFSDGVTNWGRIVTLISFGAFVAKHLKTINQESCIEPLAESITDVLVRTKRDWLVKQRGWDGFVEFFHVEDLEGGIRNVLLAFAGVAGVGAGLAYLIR

With `C[C@@H]1CN([C@@H](C)C(=O)O)C(=O)c2cccc(NS(=O)(=O)c3ccccc3)c2O[C@@H]1CN(C)C(=O)Nc1ccc(C(F)(F)F)cc1` as the molecule, how does the IC50 [1] read?
The IC50 was 10 µM.

What about the ΔTm [2] of the same molecule?
The ΔTm was 2.8 °C.

With `C[C@@H]1CN([C@@H](C)C(=O)O)C(=O)c2cccc(NS(=O)(=O)c3ccc(F)cc3)c2O[C@@H]1CN(C)C(=O)Nc1cccc(C(F)(F)F)c1` as the molecule, how does the IC50 [1] read?
The IC50 was over 25 µM.

What about the ΔTm [2] of the same molecule?
The ΔTm was 0.2 °C.

For `CN(C)C(=O)Nc1ccc(C(F)(F)F)cc1`, which Activity [3] is on record?
The Activity was “inactive”.

What about the Activity [4] of the same molecule?
The Activity was “inactive”.

What does the source list for `C[C@@H]1CN([C@@H](C)CO)C(=O)c2cccc(NS(=O)(=O)c3ccc(F)cc3)c2O[C@@H]1CN(C)C(=O)Nc1ccc(C(F)(F)F)cc1`?
Activity [5]: inactive; ΔTm [6]: 0.6 °C; ΔTm [7]: 1.9 °C

`C[C@@H]1CN([C@@H](C)C(=O)O)C(=O)c2cccc(NS(=O)(=O)c3ccccc3F)c2O[C@@H]1CN(C)C(=O)Nc1ccc(C(F)(F)F)cc1` was tested. Which IC50 [1] did it give?
Its IC50 is 21.3 µM.

What about the ΔTm [2] of the same molecule?
The ΔTm was 1.9 °C.

How did the Activity [3] turn out when `NS(=O)(=O)c1ccc(F)cc1` was run?
The Activity was “inactive”.

What about the Activity [4] of the same molecule?
The Activity was “inactive”.

With `C[C@@H]1CN([C@@H](C)C(=O)O)C(=O)c2cccc(NS(=O)(=O)c3ccc(F)cc3)c2O[C@@H]1CN(C)C(=O)Nc1ccc2ccccc2c1` as the molecule, how does the IC50 [1] read?
The IC50 was over 25 µM.

What about the ΔTm [2] of the same molecule?
The ΔTm was 0.8 °C.

For `C[C@@H]1CN([C@@H](C)C(=O)O)C(=O)c2cccc(NS(=O)(=O)Cc3ccccc3)c2O[C@@H]1CN(C)C(=O)Nc1ccc(C(F)(F)F)cc1`, which IC50 [1] is on record?
The IC50 was over 50 µM.

What about the ΔTm [2] of the same molecule?
Its ΔTm is 1.4 °C.

Which ΔTm [6] does the source give for `C[C@@H]1CN([C@@H](C)CO)C(=O)c2cccc(NS(=O)(=O)c3ccccc3)c2O[C@@H]1CN(C)C(=O)Nc1ccc(C(F)(F)F)cc1` here?
Its ΔTm is 0.3 °C.

For `C[C@@H]1CN([C@@H](C)C(=O)O)C(=O)c2cccc(NS(=O)(=O)c3cccc(F)c3)c2O[C@@H]1CN(C)C(=O)Nc1ccc(C(F)(F)F)cc1`, which IC50 [1] is on record?
Its IC50 is 4.1 µM.

And the ΔTm [2]?
The ΔTm was 3.4 °C.

Which IC50 [1] does the source give for `COc1ccc(NC(=O)N(C)C[C@H]2Oc3c(NS(=O)(=O)c4ccc(F)cc4)cccc3C(=O)N([C@@H](C)C(=O)O)C[C@H]2C)cc1` here?
Its IC50 is over 50 µM.

What about the ΔTm [2] of the same molecule?
The ΔTm was 0.2 °C.

What does the source list for `C[C@@H]1CN([C@@H](C)C(=O)O)C(=O)c2cccc(NS(=O)(=O)c3ccc(F)cc3)c2O[C@@H]1CN(C)C(=O)Nc1ccccc1`?
IC50 [1]: > 50 µM; ΔTm [2]: 0.2 °C

Which results are given for `C[C@@H]1CN([C@@H](C)C(=O)O)C(=O)c2cccc(NS(=O)(=O)CCc3ccccc3)c2O[C@@H]1CN(C)C(=O)Nc1ccc(C(F)(F)F)cc1`?
IC50 [1]: > 50 µM; ΔTm [2]: 0.4 °C

For `C[C@@H]1CN([C@@H](C)C(=O)O)C(=O)c2cccc(NS(=O)(=O)c3ccc(F)cc3)c2O[C@@H]1CN(C)C(=O)Nc1ccccc1C(F)(F)F`, which IC50 [1] is on record?
Its IC50 is over 50 µM.

What about the ΔTm [2] of the same molecule?
Its ΔTm is 0.2 °C.

Which results are given for `C[C@@H]1CN([C@@H](C)C(=O)O)C(=O)c2cccc(NS(=O)(=O)c3ccc(F)cc3)c2O[C@@H]1CN(C)C(=O)Nc1cccc2ccccc12`?
IC50 [1]: > 50 µM; ΔTm [2]: -0.1 °C
